Measurements as given in US20040014772A1, “Compositions and methods for treating glomerular disorders” (priority 2000, published 2004).

Experiments:
[1] = test system: microsomal CYP isolated from GEC; assay: H2O2 generation and catalytic iron release from microsomes isolated from GEC; format: biochemical, rat; set-up: H2O2 generation from GEC microsomal fraction: dose or concentration left out as unconfirmed
Description: The generation of H2O2 and catalytic iron from microsomal CYP isolated from GEC was also analyzed.

[2] = test system: H2O2 in the glomeruli; assay: Ultrastructural localization of H2O2 (cerium histochemistry) in rat kidney; format: in vivo; conditions: rats
Description: The principle of this method is that cerium ions combine with H2O2 generated by the cell that results in a precipitate with properties suitable for ultrastructural histochemistry. Localization of H2O2 generation was performed following the procedure of Neale et al (PNAS, USA, 1993, 90:3645-3649.). Following PAN treatment, the left kidney was perfused at 37° C. by retrograde aortic perfusion with 4 ml of each of the following solutions: a) PBS; b) 20 mmol Tris-maleate buffer (pH 7.2) containing 7% sucrose (TMS); c) TMS containing 1 mmol aminotriazole; d) TMS containing 10 mmol aminotriazole, 1 mmol cerium chloride heptahydrate and 2.56 mmol B-NADPH; and e) TMS followed by 10 mmol of 2.5% glutaraldehyde as the fixative. Pieces of the kidney were fixed further for 2 hours in glutaraldehyde and embedded in Epon. Sections from the tissue block were routinely stained with 4% aqueous uranyl acetate and alkaline lead, and examined under a Leo 906 electron microscope.

[3] = Renal function (serum creatinine, BUN) in PAN-treated rats; format: in vivo, rat; conditions: PAN-treated rats with or without PIP or CM
Description: BUN and creatinine were measured by using assay kits from Sigma.

## CN(C)c1ncnc2c1ncn2[C@@H]1O[C@H](CO)[C@@H](N)[C@H]1O [PAN, puromycin aminonucleoside]
[1]; PAN
  H2O2 generation from GEC microsomal fraction: H2O2 generation in a time dependent fashion
[1]; PAN 91.5 mM) as printed
  catalytic iron release from GEC microsomal fraction: marked increase
[2]; 1 hour and 6 hours after PAN injection
  cerium-H2O2 reaction product in the glomerular basement membrane: diffusely distributed throughout the glomerular basement membrane
[2]; fourth day after PAN, onset of proteinuria
  foot processes (electron microscopy): marked fusion of the foot processes
[3]; control 0.72±0.2
  serum creatinine: 0.85 ± 0.2 mg/dL
[3]; control 21±3, P<0.05 vs control
  BUN: 33 ± 4 mg/dL
